{"source": "patent US9636417B2", "about": "“Mucosal membrane receptor and uses thereof” (Universiteit Gent, priority 2008, dated 2017)", "key": {"BBMV of F4R+ pigs": {"tested_on": "BBMV of F4R+ pigs", "assay": "F4 binding to BBMV after glycosidase or periodate treatment", "parameters": "species or system pig", "method": "To remove sialic acid from the pAPN, 2 mg/ml BBMV from F4R+ pigs were incubated with soluble neuraminidase from Arthrobacter urefaciens (Calbiochem, specific for α2-3,6,8,9 linked sialic acid) for 3 hours at 37° C. according to the manufacturer's instructions. Fetuin, a sialic acid containing protein was used as a positive control and the buffer in which the neuraminidase was provided, was used as a negative control. Brush border membrane vesicles from F4R+ pigs were treated with N-glycosidase F (NEB, Beverly, Mass.) or with endoglycosidase H (NEB Beverly, Mass.) according to the manufacturer's instructions to remove all N-glycans (high mannose and complex, sialic acid containing glycans) or N-glycans of the high mannose type, respectively. RNAse B was used as a positive control and the buffer in which the enzyme was provided, was used as a negative control.\nBrush border membrane vesicles from F4R+ pigs were treated with variable concentrations of NaIO4 (Sigma-Aldrich Chemie GmbH, Steinheim, Germany) in 50 mM sodiumacetate, pH 4.5, at 37° C. in the dark. Reactions were stopped by the addition of ethylene glycol to a final concentration of 20 mM. Brush border membrane vesicles from F4R− pigs were treated with the same […] and were used as a negative control."}, "pAPN-BHK-21 cells": {"tested_on": "pAPN-BHK-21 cells", "assay": "Endocytosis assay (confocal microscopy) of FLUOS-labeled-F4 with chemical inhibitors", "assay_type": "cell-based, porcine", "conditions": "for effect on F4 internalization in pAPN-BHK cells: different concentrations, inhibitor added 30 min before FLUOS-labeled-F4", "method": "Cells were then washed with PBS supplemented with 0.1 mM CaCl2 and 1 mM MgCl2 (PBS+) to remove unbound FLUOS-labeled-F4 and shifted to 37° C. to start endocytosis. After different time intervals, cells were fixed with 3% paraformaldehyde (PF), permeabilized with 0.1% Triton X-100 and stained with 200 nM phalloidin-Texas Red (Molecular Probes, Eugene, Oreg., USA) in PBS+ for 1 h at 37° C. To analyze the effect of different inhibitors on endocytosis, cells were incubated with different concentrations of each inhibitor (Table 1). Inhibitors were added 30 min before incubation with FLUOS-labeled-F4 (25 μg). Cells were fixed with 3% PF at the indicated times. For each concentration of the chemical inhibitors, the viability of the cells was analyzed by flow cytometry after the addition of 10 μg propidium iodide (Molecular Probes, Eugene, Oreg., USA). The number of vesicles internalized in the cells was counted using confocal microscopy. Confocal images were acquired using a Leica TCS SP2 laser scanning spectrum confocal system (Leica Microsystems), using an argon 488-nm laser line and a […] 543-nm laser line to excite FITC and Texas Red respectively. Images were merged using Leica confocal software."}, "F4R on enterocytes": {"target": "T1, F4R on enterocytes (Sus scrofa, UniProt P15145)", "T1 construct": "Brush border membrane vesicles (BBMV) of the small intestine were prepared from the F4R+ and F4R− pigs; from tissue; host or cells: pig jejunum: enterocyte preparations, BBMV, ligated jejunal loops", "T1 sequence (P15145 2-963)": "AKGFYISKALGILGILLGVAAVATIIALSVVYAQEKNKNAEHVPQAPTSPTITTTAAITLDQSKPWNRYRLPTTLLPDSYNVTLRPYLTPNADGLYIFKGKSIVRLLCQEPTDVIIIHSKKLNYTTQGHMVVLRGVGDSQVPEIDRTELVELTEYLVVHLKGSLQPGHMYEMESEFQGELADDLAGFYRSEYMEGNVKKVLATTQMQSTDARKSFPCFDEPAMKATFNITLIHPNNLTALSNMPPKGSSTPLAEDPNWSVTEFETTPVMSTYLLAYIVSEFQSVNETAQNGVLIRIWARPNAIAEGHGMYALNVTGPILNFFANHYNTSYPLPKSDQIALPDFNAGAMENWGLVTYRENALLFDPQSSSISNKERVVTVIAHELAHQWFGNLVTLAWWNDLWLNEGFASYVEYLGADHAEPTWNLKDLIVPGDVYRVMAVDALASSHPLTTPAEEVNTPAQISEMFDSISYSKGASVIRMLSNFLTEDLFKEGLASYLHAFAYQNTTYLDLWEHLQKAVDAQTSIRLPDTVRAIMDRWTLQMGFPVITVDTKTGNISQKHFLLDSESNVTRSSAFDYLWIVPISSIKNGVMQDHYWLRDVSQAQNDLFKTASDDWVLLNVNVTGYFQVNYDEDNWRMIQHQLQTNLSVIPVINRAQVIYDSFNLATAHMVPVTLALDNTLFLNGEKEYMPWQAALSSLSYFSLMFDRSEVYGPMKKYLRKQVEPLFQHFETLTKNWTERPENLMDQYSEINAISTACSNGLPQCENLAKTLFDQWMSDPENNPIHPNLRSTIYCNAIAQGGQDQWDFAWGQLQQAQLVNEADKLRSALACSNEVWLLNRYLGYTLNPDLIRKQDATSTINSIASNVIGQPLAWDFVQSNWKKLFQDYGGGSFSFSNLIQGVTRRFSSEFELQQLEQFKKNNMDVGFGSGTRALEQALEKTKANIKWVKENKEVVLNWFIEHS", "assay": "biochemical", "assay_type": "binding, pig", "conditions": "read-out: inhibition of adhesion of F4R+ enterocytes to F4ac", "description": "The interaction between the F4ac fimbriae and BBMV or enterocytes of F4R+ and F4R− pigs was analyzed with the BIAcore®2000 biosensor (Uppsala, Sweden) using the CM3 chip. This has a short carboxymethyldextran surface to allow immobilization of F4 fimbriae via free NH2-groups using an amine-coupling kit (Biacore, Uppsala, Sweden) containing N-hydroxysuccinimide (NHS), N-ethyl-N′-[(3-dimethylamino)-propyl]-carbodiimide hydrochloride (EDC) and ethanolamine-HCl. Hereto, 100 μl of a mixture of NHS:EDC (1:1) was injected at a flow rate of 10 μl/min at 25° to activate the dextran matrix on the sensor chip, followed by F4ac at a concentration of 100 μg/ml in 0.1 M glycine buffer pH 2.3 until the amount (mol) of immobilized F4 equilized more than 500 resonance units (RU). […] Subsequently, the remaining active sites of the matrix were blocked with 1 M ethanolamine-HCl and washed with HBS-N (0.01 M HEPES, 0.15 M NaCl). […] All samples used in further experiments were diluted in HBS-N buffer, which also served as running buffer during the experiments.\nThe first approach was to pre-incubate the F4R+ and F4R− enterocytes or BBMV with 0, 50 and 100 μg/ml F4ac fimbriae, while gently shaking. After 1 h pre-incubation at room temperature, a gentle short spin centrifugation was performed. […]"}, "[1]": {"tested_on": "wheat germ agglutinin (WGA)", "assay": "SPR specificity control: bestatin pre-incubated BBMV and enterocytes on immobilized WGA", "assay_type": "binding", "conditions": "bestatin 0 mM, 1 mM and 10 mM; F4R+ pigs", "method": "The interaction between the F4ac fimbriae and BBMV or enterocytes of F4R+ and F4R− pigs was analyzed with the BIAcore®2000 biosensor (Uppsala, Sweden) using the CM3 chip. This has a short carboxymethyldextran surface to allow immobilization of F4 fimbriae via free NH2-groups using an amine-coupling kit (Biacore, Uppsala, Sweden) containing N-hydroxysuccinimide (NHS), N-ethyl-N′-[(3-dimethylamino)-propyl]-carbodiimide hydrochloride (EDC) and ethanolamine-HCl. Hereto, 100 μl of a mixture of NHS:EDC (1:1) was injected at a flow rate of 10 μl/min at 25° to activate the dextran matrix on the sensor chip, followed by F4ac at a concentration of 100 μg/ml in 0.1 M glycine buffer pH 2.3 until the amount (mol) of immobilized F4 equilized more than 500 resonance units (RU). Thousand RU corresponds to a change in the surface concentration of 1 ng/mm2 (Stenberg 1991). Subsequently, the remaining active sites of the matrix were blocked with 1 M ethanolamine-HCl and washed with HBS-N (0.01 M HEPES, 0.15 M NaCl). […] All samples used in further experiments were diluted in HBS-N buffer, which also served as running buffer during the experiments.\nTo check the specificity of blocking of bestatin, F4R+ and F4R− enterocytes or BBMV were pre-incubated with 0, 1 mM and 10 mM bestatin, while gently shaking for 1 hour at room temperature and injected in the WGA coated flow cell. […]"}, "[2]": {"target": "T2, F4R on brush border membrane vesicles (BBMV) (Sus scrofa, UniProt P15145)", "T2 construct": "Brush border membrane vesicles (BBMV) of the small intestine were prepared from the F4R+ and F4R− pigs; from tissue; host or cells: pig jejunum: enterocyte preparations, BBMV, ligated jejunal loops", "T2 sequence (P15145 2-963)": "T1 sequence (P15145 2-963)", "assay": "biochemical", "assay_type": "binding, pig", "conditions": "read-out: inhibition of adhesion of F4R+ BBMV to F4ac", "description": "Brush border membrane vesicles (BBMV) of the small intestine were prepared from the F4R+ and F4R− pigs by the method of Kessler (1978) with a slight modification. Enterocytes were washed twice in PBS with 0.1 mM PMSF and were resuspended in Tris-HCl buffer (2 mM, pH 7.2) containing 50 mM mannitol in ratio 3:1 (vol/vol) whereafter cells were homogenized for 2 min with an Ultra Turrax (Janke & Kunkel, I K A Labortechnik, Staufen, Germany). Subsequently, CaCl2 was added to the homogenate to a final concentration of 10 mM and placed on ice for 15 min. Then the homogenate was centrifugated at 27,000×g for 30 min and washed with Tris buffer (pH 7.5) containing 50 mM mannitol and 10 mM HEPES and centrifuged again. The pellet was resuspended in the same buffer and used for the study. The protein concentration of the obtained BBMV was determined using the bicinchoninic acid (BCA) reaction with bovine serum albumin (BSA) as standard (ICN Biomedicals, Belgium).\nThe interaction between the F4ac fimbriae and BBMV or enterocytes of F4R+ and F4R− pigs was analyzed with the BIAcore®2000 biosensor (Uppsala, Sweden) using the CM3 chip. […]"}, "[3]": {"target": "T3, pAPN transfected BHK-21 cells (Sus scrofa, UniProt P15145)", "T3 construct": "expressed in transfected cells; host or cells: BHK-21 (baby hamster kidney), G418-selected; gift", "T3 sequence (P15145 1-963)": "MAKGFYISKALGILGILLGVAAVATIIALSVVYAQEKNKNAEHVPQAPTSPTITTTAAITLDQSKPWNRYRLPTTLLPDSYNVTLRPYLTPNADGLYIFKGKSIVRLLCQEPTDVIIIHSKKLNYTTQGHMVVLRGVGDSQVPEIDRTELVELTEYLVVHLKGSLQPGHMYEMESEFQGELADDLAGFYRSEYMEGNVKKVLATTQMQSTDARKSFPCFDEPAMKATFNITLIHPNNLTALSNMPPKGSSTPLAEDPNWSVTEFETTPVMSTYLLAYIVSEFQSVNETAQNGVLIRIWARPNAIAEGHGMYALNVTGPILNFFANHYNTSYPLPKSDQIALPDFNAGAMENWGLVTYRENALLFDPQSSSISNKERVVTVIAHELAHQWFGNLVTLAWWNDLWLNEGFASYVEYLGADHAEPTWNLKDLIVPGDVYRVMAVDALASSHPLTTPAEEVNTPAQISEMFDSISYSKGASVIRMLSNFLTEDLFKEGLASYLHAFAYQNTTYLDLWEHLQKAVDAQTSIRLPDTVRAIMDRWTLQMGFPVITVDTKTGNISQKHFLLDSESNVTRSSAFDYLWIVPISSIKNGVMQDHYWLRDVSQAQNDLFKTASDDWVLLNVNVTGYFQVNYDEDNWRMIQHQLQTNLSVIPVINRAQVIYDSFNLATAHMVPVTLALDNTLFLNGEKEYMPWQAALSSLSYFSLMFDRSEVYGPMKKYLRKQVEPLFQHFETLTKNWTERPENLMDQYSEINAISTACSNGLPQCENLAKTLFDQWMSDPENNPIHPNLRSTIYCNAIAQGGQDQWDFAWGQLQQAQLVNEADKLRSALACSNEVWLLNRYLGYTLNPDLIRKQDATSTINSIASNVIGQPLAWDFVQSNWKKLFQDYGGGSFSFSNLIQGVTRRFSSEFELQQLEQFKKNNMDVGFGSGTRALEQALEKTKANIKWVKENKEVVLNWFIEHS", "assay": "Flow cytometry of FLUOS-labeled-F4 binding to pAPN transfected BHK-21 cells", "assay_type": "cell-based, porcine", "method": "The BHK-21 and pAPN transfected BHK-21 cells were kindly gifted from Dr. Enjuanes and Dr. Delmas. The BHK-21 cells were cultured in DMEM with 5% FCS, 1% L-Glu, 1% P/S, 1% sodiumpyruvate (Gibco BRL, Life Technologies Inc., Paisley, Scotland), 1% non-essential amino acids (Gibco BRL, Life Technologies Inc., Paisley, Scotland). The pAPN transfected BHK-21 cells were grown in the same medium supplemented with 1.5 mg/ml geneticin G418 (Sigma-Aldrich Chemie GmbH, Steinheim, Germany).\nTo block the internalization of FLUOS-labeled-F4, 50 μM bestatin, an inhibitor of aminopeptidase N (Sigma-Aldrich Chemie GmbH, Steinheim, Germany) was incubated with BHK-21 or pAPN transfected BHK-21 cells 3 hours before addition of 25 μg FLUOS-labeled-F4. Afterwards, cells were washed 3 times with PBS. The BHK-21 or pAPN transfected BHK-21 cells were analyzed by flow cytometry with a FACScanto using CellDiva software (BD Biosciences). Ten thousand cells were analysed for each sample, and three parameters were used for further analysis: forward light scattering, sideward light scattering and green fluorescence. The median fluorescence intensity was used to measure the amount of FLUOS-labeled-F4 to the cells."}}, "note": "Entries after “also recorded” stand apart in the source; their conditions may differ."}
{"compound": "[O-][I+3]([O-])([O-])O", "note": "[NaIO4]", "values": [{"measurement": "binding of F4 to the receptor in BBMV of F4R+ pig", "setting": "BBMV of F4R+ pigs; 25 mM NaIO4, 30 min", "value": "greatly reduced"}, {"measurement": "F4ac binding to the BBMV of F4R+ pigs", "setting": "BBMV of F4R+ pigs; periodate, two hours treatment", "value": "abolishing; also recorded: abolished"}]}
{"compound": "NC12CC3CC(CC(C3)C1)C2", "note": "[amantadine]", "values": [{"measurement": "effect on F4 internalization in pAPN-BHK cells", "setting": "pAPN-BHK-21 cells", "value": "reduced the F4 internalization"}]}
{"compound": "CC(C)C[C@H](NC(=O)[C@@H](O)[C@H](N)Cc1ccccc1)C(=O)O", "note": "[bestatin]", "values": [{"measurement": "FLUOS-labeled F4 internalization", "setting": "pAPN-BHK-21 cells; bestatin 50 μM, added 30 minutes before FLUOS-labeled F4, pAPN-BHK cells", "value": "18±5.3", "unit": "%"}, {"measurement": "inhibition at 1000 µM", "setting": "F4R on enterocytes", "value": "22 ± 3.3", "unit": "%"}, {"measurement": "inhibition at 10000 µM", "setting": "F4R on enterocytes", "value": "72 ± 1", "unit": "%"}, {"measurement": "interaction of pre-incubated BBMV or enterocytes with WGA", "setting": "[1]", "value": "No difference in interaction"}, {"measurement": "inhibition at 1000 µM", "setting": "[2]", "value": "4 ± 1.2", "unit": "%"}, {"measurement": "inhibition at 10000 µM", "setting": "[2]", "value": "10 ± 2", "unit": "%"}, {"measurement": "mean fluorescence intensity after treatment of bestatin", "setting": "[3]", "value": "1001±15"}]}
{"compound": "C=C1[C@@H](C)[C@H]2[C@H](Cc3ccccc3)NC(=O)[C@]23[C@H](OC(C)=O)/C=C/[C@@](C)(O)C(=O)[C@@H](C)C/C=C/[C@H]3[C@@H]1O", "note": "[cytochalasin D]", "values": [{"measurement": "effect on F4 internalization in pAPN-BHK cells", "setting": "pAPN-BHK-21 cells", "value": "reduced the F4 internalization"}]}
{"compound": "OC[C@H]1O[C@@](CO)(O[C@H]2O[C@H](CO)[C@@H](O)[C@H](O)[C@H]2O)[C@@H](O)[C@@H]1O", "note": "[hypertonic sucrose, sucrose]", "values": [{"measurement": "effect on F4 internalization in pAPN-BHK cells", "setting": "pAPN-BHK-21 cells", "value": "reduced the F4 internalization"}]}
{"compound": "C/C1=C/C(=O)O[C@@H]2C[C@@H](CC[C@H](C)/C=C\\CC1)O[C@@](O)([C@@H]1CSC(=O)N1)C2", "note": "[latrunculin B]", "values": [{"measurement": "effect on F4 internalization in pAPN-BHK cells", "setting": "pAPN-BHK-21 cells", "value": "no effect"}]}
{"compound": "dynamin inhibitory peptide", "values": [{"measurement": "effect on F4 internalization in pAPN-BHK cells", "setting": "pAPN-BHK-21 cells", "value": "reduced the F4 internalization"}]}
